Results: the supplement of paper PMC10307832

Legend:
Experiment in all cases: relative viability (nuclei count vs DMSO), 5 days (fraction); higher = more cells survive
[1] = compound: Cc1ccc2nc(NCCN)c3ncc(C)n3c2c1 + CC1(C)CCC(c2ccc(Cl)cc2)=C(CN2CCN(c3ccc(C(=O)NS(=O)(=O)c4ccc(N[C@H](CCN5CCOCC5)CSc5ccccc5)c(S(=O)(=O)C(F)(F)F)c4)cc3)CC2)C1 [Navitoclax] (partner 0.5 µM)
Outline: (§1)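 Lung cancer cell lines in 1536-well plates got either a single drug or a fixed anchor-drug dose together with five library-drug doses (not always all listed) in √10 steps, by pin tool, on the day after seeding. Nuclei were counted after 5 days, and relative viability is the treated-to-vehicle ratio of nuclei counts. Values are medians of duplicate plates.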

[2] = compound: Cc1ccc2nc(NCCN)c3ncc(C)n3c2c1 + CS(=O)(=O)CCNCc1ccc(-c2ccc3ncnc(Nc4ccc(OCc5cccc(F)c5)c(Cl)c4)c3c2)o1 [Lapatinib] (partner 2 µM)
Outline: as §1

[3] = compound: O=C(/C=C/c1ccccc1)NC(NC(=S)Nc1cccc2cccnc12)C(Cl)(Cl)Cl [Salubrinal] + CCNC(=O)c1noc(-c2cc(C(C)C)c(O)cc2O)c1-c1ccc(CN2CCOCC2)cc1 [Luminespib] (partner 0.01 µM)
Outline: as §1

[4] = compound: O=C(/C=C/c1ccccc1)NC(NC(=S)Nc1cccc2cccnc12)C(Cl)(Cl)Cl [Salubrinal] + Cc1nc(Nc2ncc(C(=O)Nc3c(C)cccc3Cl)s2)cc(N2CCN(CCO)CC2)n1 [Dasatinib] (partner 0.075 µM)
Outline: as §1

| Cell Line | relative viability ([1]; first compound 0.04 µM) | relative viability ([1]; first compound 0.1265 µM) | relative viability ([1]; first compound 0.4 µM) | relative viability ([1]; first compound 1.265 µM) | relative viability ([1]; first compound 4 µM) | relative viability ([2]; first compound 0.04 µM) | relative viability ([2]; first compound 0.1265 µM) | relative viability ([2]; first compound 0.4 µM) | relative viability ([2]; first compound 1.265 µM) | relative viability ([2]; first compound 4 µM) | relative viability ([3]; first compound 0.08 µM) | relative viability ([3]; first compound 0.253 µM) | relative viability ([3]; first compound 0.8 µM) | relative viability ([3]; first compound 2.53 µM) | relative viability ([3]; first compound 8 µM) | relative viability ([4]; first compound 0.08 µM) | relative viability ([4]; first compound 0.253 µM) | relative viability ([4]; first compound 0.8 µM) | relative viability ([4]; first compound 2.53 µM) | relative viability ([4]; first compound 8 µM) |
| --- | --- | --- | --- | --- | --- | --- | --- | --- | --- | --- | --- | --- | --- | --- | --- | --- | --- | --- | --- | --- |
| PC-3 [JPC-3] | 0.826 | 0.767 | 0.848 | 0.786 | 0.827 | 0.475 | 0.45 | 0.42 | 0.448 | 0.424 | 0.747 | 0.511 | 0.671 | 0.736 | 0.571 | 1.14 | 0.762 | 1.1 | 0.966 | 0.961 |
| NCI-H2228 | 0.794 | 0.843 | 0.702 | 0.732 | 0.674 | 1.07 | 1.3 | 0.884 | 1.15 | 1.04 | 0.105 | 0.0961 | 0.154 | 0.108 | 0.174 | 0.568 | 0.485 | 0.508 | 0.528 | 0.431 |
| HOP-62 | 0.956 | 1.05 | 0.859 | 1 | 0.954 | 1.13 | 0.845 | 0.688 | 0.81 | 1.02 | 0.936 | 0.676 | 0.968 | 0.882 | 0.861 | 0.662 | 0.586 | 0.703 | 0.742 | 0.478 |
| HARA | 1.16 | 1.15 | 1.14 | 1.08 | 1.21 | 0.748 | 0.863 | 0.553 | 0.691 | 0.821 | 0.848 | 0.688 | 1.08 | 0.487 | 0.496 | 0.341 | 0.29 | 0.282 | 0.265 | 0.263 |
| NCI-H838 | 1.23 | 1.05 | 1.16 | 1.15 | 1.12 | 1.08 | 1.01 | 0.919 | 0.974 | 0.837 | 0.264 | 0.258 | 0.285 | 0.341 | 0.272 | 0.304 | 0.288 | 0.318 | 0.262 | 0.266 |
| NCI-H1755 | 1.04 | 0.971 | 0.997 | 1.02 | 0.98 | 1.1 | 1.03 | 0.934 | 1.1 | 1.04 | 0.414 | 0.637 | 0.707 | 0.293 | 0.378 | 0.443 | 0.444 | 0.45 | 0.426 | 0.344 |
| NCI-H322M | 1.15 | 1.16 | 1.19 | 1.25 | 1.22 | 0.535 | 0.593 | 0.586 | 0.59 | 0.603 | 1.06 | 0.794 | 0.866 | 0.761 | 0.712 | 0.267 | 0.24 | 0.256 | 0.265 | 0.274 |
| NCI-H3122 | 1.03 | 1.03 | 1.06 | 1 | 1.1 | 1.06 | 0.994 | 0.997 | 1.12 | 1 | 0.117 | 0.112 | 0.0978 | 0.118 | 0.1 | 0.828 | 0.869 | 0.802 | 0.846 | 0.914 |
